# Laboratory results published in patent publication US20200270575A1, “Culture System for Expanding Hematopoietic Stem Cells and/or Hematopoietic Progenitor Cells and the Method Thereof, Hematopoietic Stem Cells and Hematopoietic Progenitor Cells” (NEWISH TECHNOLOGY (BEIJING) CO., LTD., priority 2017, published 2020).
# Assays:
# [1] = test system: cord blood-derived CD34+ cells; assay: In vitro expansion of CD34+CD45RA− cells, 7-day culture of cord blood-derived CD34+ cells; assay type: cell-based, human
# Protocol: The material was derived from cord blood waste supplied by the company, and cord blood-derived CD34+ cells were isolated by magnetic bead sorting (MACS) as cultured materials in the following examples.
# CD34+ cells were cultured based on the culture conditions of Table 1. The experimental group (the small chemical molecule is SP600125) and the control group (the small chemical molecule is replaced by DMSO, the volume ratio of DMSO: medium is 1:10000) were placed in the cell incubator at 37° C. with the concentration of 5% carbon dioxide, and half amount of the medium was changed every 2 days.
# On the 7th day of the culturing, the ratio of CD34+CD45RA−cells was measured, and the fold expansion was counted and calculated. The CD34+CD45RA− in the experimental group was about 15 times in the fold expansion, while the CD34+CD45RA− in the control group was about 5 times in fold expansion.
# [2] = test system: immunodeficient mice; assay: Transplantation experiment in vivo: reconstitution of human cells in bone marrow and peripheral blood after 4 months; settings: for reconstruction effect of experimental group relative to control group (DMSO): 4 months; for blood cells in human peripheral blood (reconstitution proportion of peripheral blood) / reconstruction proportion of human blood cells in bone marrow (CD45+ cells): 4 months after transplantation
# Protocol: On the 7th day of the culturing, the transplantation experiment in vivo was carried out at the meantime. The expanded CD34+ cells in the experimental group and the control group were respectively injected into the immunodeficient mice by bone marrow transplantation. Each group contain 8 mice, and each mouse was injected with the total cells expanded from 5000 original CD34+ cells. The reconstitution ratio of human cells in peripheral blood and bone marrow of immunodeficient mice were measured after 4 months. In the experimental group, the reconstruction proportion of human blood cells in bone marrow (CD45+ cells) reached about 50%, and the blood cells in human peripheral blood reached about 5%. In the control group, the reconstruction proportion of human blood cells in bone marrow reached about 20%, and the blood cells in human peripheral blood reached about 1%. The reconstruction effect of the experimental group was about 4 times higher than that of the control group after a general comparison.
# [3] = test system: LT-HSC; settings: background, 2014 report; cited from earlier work
# [4] = test system: immunodeficiency mice; settings: background, 2010 report; cited from earlier work
# [5] = Example 2: cells expanded with 4 μM
# [6] = Example 3: cells expanded with 2 μM
# [7] = Example 7: cells expanded with 5 μM
# [8] = Example 5: cells expanded with 1 μM
# [9] = Example 6: cells expanded with 0.5 μM
# [10] = Example 4: cells expanded with 5 μM
structure (smiles),measurement,setting,value
O=C1c2ccccc2-c2n[nH]c3cccc1c23 [SP600125],fold expansion of CD34+CD45RA− cells at day 7 relative to the primary cells,"[1]; Example 1: 4 μM, SCF 100, FL 100, TPO 50 ng/ml, LDL 10 μg/ml",about 15 times
same,CD34+CD45RA− in the experimental group relative to control group (DMSO),"[1]; Example 2: 4 μM, SCF 50, FL 50, TPO 25 ng/ml, LDL 5 μg/ml, day 7",2.5 times
same,proliferation amount of CD34+CD45RA− in the experimental group relative to control group (DMSO),"[1]; Example 3: 2 μM, SCF 20, FL 50, TPO 20 ng/ml, LDL 5 μg/ml, day 7",2 times
same,proliferation amount of CD34+CD45RA− in the experimental group relative to control group (DMSO),"[1]; Example 7: 5 μM, SCF 500, FL 100, TPO 20 ng/ml, LDL 10 μg/ml, day 7",2.3 times
same,reconstruction effect of experimental group relative to control group (DMSO),"[2]; Example 1: 4 μM, general comparison",about 4 times
same,blood cells in human peripheral blood (reconstitution proportion of peripheral blood),[2]; Example 1: cells expanded with 4 μM,about 5%
same,reconstruction proportion of human blood cells in bone marrow (CD45+ cells),"[2]; Example 1: cells expanded with 4 μM, cells from 5000 original CD34+ cells per mouse",about 50%
same,reconstruction effect of experimental group relative to control group (DMSO),"[2]; Example 2: 4 μM, general comprehensive comparison",about 6 times
same,blood cells in human peripheral blood (reconstitution proportion of peripheral blood),[2]; [5],about 9%
same,reconstruction proportion of human blood cells in bone marrow (CD45+ cells),[2]; [5],about 70%
same,reconstruction effect of experimental group relative to control group (DMSO),"[2]; Example 3: 2 μM, general comparison",about 4 times
same,blood cells in human peripheral blood (reconstitution proportion of peripheral blood),[2]; [6],about 4%
same,reconstruction proportion of human blood cells in bone marrow (CD45+ cells),[2]; [6],about 40%
same,reconstruction effect of experimental group relative to control group (DMSO),"[2]; Example 7: 5 μM, general comparison",about 5.5 times
same,blood cells in human peripheral blood (reconstitution proportion of peripheral blood),[2]; [7],about 7.5%
same,reconstruction proportion of human blood cells in bone marrow (CD45+ cells),[2]; [7],about 58%
Cn1nnc(-c2ccc3c(c2)[nH]c2nc(Cc4ccccc4)nc(NC4CCC(N)CC4)c23)n1 (stereo not drawn) [UM171],maintenance of the function of hematopoietic reconstitution,[3],up to 6 months
CN(C)C/C=C/C(=O)Nc1cccc(C(=O)Nc2ccc(Nc3nccc(-c4cccnc4)n3)cc2)c1 [JNK-IN-7],proliferation amount of CD34+CD45RA− in the experimental group relative to control group (DMSO),"[1]; Example 5: 1 μM, SCF 200, FL 50, TPO 5 ng/ml, LDL 10 μg/ml, day 7",2.5 times
same,reconstruction effect of experimental group relative to control group (DMSO),"[2]; Example 5: 1 μM, general comparison",about 5 times
same,blood cells in human peripheral blood (reconstitution proportion of peripheral blood),[2]; [8],about 8.5%
same,reconstruction proportion of human blood cells in bone marrow (CD45+ cells),[2]; [8],about 58%
CN(C)C/C=C/C(=O)Nc1cccc(C(=O)Nc2ccc(Nc3nccc(-c4c(-c5ccccc5)nn5ccccc45)n3)cc2)c1 [JNK-IN-11],proliferation amount of CD34+CD45RA− in the experimental group relative to control group (DMSO),"[1]; Example 6: 0.5 μM, SCF 300, FL 100, TPO 20 ng/ml, LDL 10 μg/ml, day 7",2.8 times
same,reconstruction effect of experimental group relative to control group (DMSO),"[2]; Example 6: 0.5 μM, general comparison",about 8 times
same,blood cells in human peripheral blood (reconstitution proportion of peripheral blood),[2]; [9],about 12.5%
same,reconstruction proportion of human blood cells in bone marrow (CD45+ cells),[2]; [9],about 78%
CC(C)n1cnc2c(NCCc3ccc(O)cc3)nc(-c3csc4ccccc34)nc21 [SR1],increase of the amount of exogenous hematopoietic cells detected in immunodeficiency mice,[4],17 times
N#C/C(=C1/Nc2ccccc2S1)c1ccnc(NCCc2cccnc2)n1 [AEG-3482],proliferation amount of CD34+CD45RA− in the experimental group relative to control group (DMSO),"[1]; Example 4: 5 μM, SCF 10, FL 100, TPO 10 ng/ml, LDL 2 μg/ml, day 7",2.3 times
same,reconstruction effect of experimental group relative to control group (DMSO),"[2]; Example 4: 5 μM, general comparison",about 2.5 times
same,blood cells in human peripheral blood (reconstitution proportion of peripheral blood),[2]; [10],about 3.5%
same,reconstruction proportion of human blood cells in bone marrow (CD45+ cells),[2]; [10],about 35%
